Values quoted from earlier work in patent US10017479B2, “Process to make non nucleosidal reverse transcriptase inhibitors (NNRTI) for the treatment of HIV” (priority 2013, dated 2018).

Legend:
[1] = test system: wild type strains of HIV-1

## O=C(CSc1nnnn1-c1cccc2ccccc12)Nc1ccccc1[N+](=O)[O-] [compound 3, 2-((1-(naphthalen-1-yl)-1H-tetrazol-5-yl)thio)-N-(2-nitrophenyl)actetamid-e]
[1]
  activity against the wild type strains of HIV-1: nanomolar activity
Mutated strains of HIV-1
  activity against the mutated strains of HIV-1: nanomolar activity
